Assay results as given in ChEMBL document CHEMBL1909046, “DrugMatrix in vitro pharmacology data”.

Key:
[1] = DRUGMATRIX: Sodium/nucleoside co-transporter radioligand binding (ligand: nitrobenzylthioinosine); format: cell membranes, Cavia porcellus, Dunkin-Hartley, Cerebral cortex, Membrane; settings: Not Active = under 50% inhibition at 10 µM
B2 bradykinin receptor = biological target: T1, B2 bradykinin receptor (Homo sapiens, UniProt P30411); format: cell membranes, Membrane; settings: chem-1; also: in other assays of this panel Not Active means under 50% inhibition at 10 µM
T1 sequence (P30411 whole entry): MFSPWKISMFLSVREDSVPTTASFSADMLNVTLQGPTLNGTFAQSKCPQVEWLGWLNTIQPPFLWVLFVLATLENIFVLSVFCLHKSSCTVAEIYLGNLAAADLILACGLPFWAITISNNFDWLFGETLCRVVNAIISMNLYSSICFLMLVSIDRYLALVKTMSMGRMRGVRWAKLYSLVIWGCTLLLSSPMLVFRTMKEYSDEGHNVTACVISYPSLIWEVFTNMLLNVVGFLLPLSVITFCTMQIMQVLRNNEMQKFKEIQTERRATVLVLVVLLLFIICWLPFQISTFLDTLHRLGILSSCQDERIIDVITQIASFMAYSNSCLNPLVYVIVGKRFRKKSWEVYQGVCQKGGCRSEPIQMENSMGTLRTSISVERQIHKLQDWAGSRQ

Cannabinoid receptor 1 = Cannabinoid receptor 1 (Homo sapiens, UniProt P21554); format: cell membranes, Chem-1, Membrane; settings: chem-1; also: in other assays of this panel Not Active means under 50% inhibition at 10 µM
Chain of Cannabinoid receptor 1 (P21554 whole entry): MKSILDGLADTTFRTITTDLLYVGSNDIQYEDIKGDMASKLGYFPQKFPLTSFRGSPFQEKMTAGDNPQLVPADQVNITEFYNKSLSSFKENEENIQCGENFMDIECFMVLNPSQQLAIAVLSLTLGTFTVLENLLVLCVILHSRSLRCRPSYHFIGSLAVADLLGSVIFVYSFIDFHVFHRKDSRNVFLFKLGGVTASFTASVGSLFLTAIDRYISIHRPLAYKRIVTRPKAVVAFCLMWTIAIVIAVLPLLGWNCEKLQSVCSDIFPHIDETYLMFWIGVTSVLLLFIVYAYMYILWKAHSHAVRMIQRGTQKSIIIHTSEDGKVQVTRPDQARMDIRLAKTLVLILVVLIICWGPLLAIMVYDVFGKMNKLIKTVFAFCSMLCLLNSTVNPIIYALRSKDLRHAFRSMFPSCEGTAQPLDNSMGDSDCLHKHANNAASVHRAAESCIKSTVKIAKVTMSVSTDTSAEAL

[2] = DRUGMATRIX: GABAA, Chloride Channel, TBOB radioligand binding (ligand: [3H] TBOB); format: cell membranes, Rattus norvegicus, Wistar, Cerebral cortex, Membrane; settings: Not Active = under 50% inhibition at 10 µM
[3] = DRUGMATRIX: Glutamate, AMPA radioligand binding (ligand: [3H] AMPA); format: cell membranes, Rattus norvegicus, Wistar, Cerebral cortex, Membrane; settings: Not Active = under 50% inhibition at 10 µM
[4] = DRUGMATRIX: Phosphodiesterase PDE3 enzyme inhibition (substrate: [3H]cAMP + cAMP); format: tissue-based, Homo sapiens; settings: platelet; Not Active = under 50% inhibition at 10 µM
[5] = biological target: T2, Angiotensin-converting enzyme (Oryctolagus cuniculus, UniProt P12822); format: tissue-based, Lung;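 also: enzymatic inhibition of angiotensin-converting enzyme measured with FAPGG as the substrate; in other assays of this panel Not Active means under 50% inhibition at 10 µM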
T2 sequence (P12822 whole entry): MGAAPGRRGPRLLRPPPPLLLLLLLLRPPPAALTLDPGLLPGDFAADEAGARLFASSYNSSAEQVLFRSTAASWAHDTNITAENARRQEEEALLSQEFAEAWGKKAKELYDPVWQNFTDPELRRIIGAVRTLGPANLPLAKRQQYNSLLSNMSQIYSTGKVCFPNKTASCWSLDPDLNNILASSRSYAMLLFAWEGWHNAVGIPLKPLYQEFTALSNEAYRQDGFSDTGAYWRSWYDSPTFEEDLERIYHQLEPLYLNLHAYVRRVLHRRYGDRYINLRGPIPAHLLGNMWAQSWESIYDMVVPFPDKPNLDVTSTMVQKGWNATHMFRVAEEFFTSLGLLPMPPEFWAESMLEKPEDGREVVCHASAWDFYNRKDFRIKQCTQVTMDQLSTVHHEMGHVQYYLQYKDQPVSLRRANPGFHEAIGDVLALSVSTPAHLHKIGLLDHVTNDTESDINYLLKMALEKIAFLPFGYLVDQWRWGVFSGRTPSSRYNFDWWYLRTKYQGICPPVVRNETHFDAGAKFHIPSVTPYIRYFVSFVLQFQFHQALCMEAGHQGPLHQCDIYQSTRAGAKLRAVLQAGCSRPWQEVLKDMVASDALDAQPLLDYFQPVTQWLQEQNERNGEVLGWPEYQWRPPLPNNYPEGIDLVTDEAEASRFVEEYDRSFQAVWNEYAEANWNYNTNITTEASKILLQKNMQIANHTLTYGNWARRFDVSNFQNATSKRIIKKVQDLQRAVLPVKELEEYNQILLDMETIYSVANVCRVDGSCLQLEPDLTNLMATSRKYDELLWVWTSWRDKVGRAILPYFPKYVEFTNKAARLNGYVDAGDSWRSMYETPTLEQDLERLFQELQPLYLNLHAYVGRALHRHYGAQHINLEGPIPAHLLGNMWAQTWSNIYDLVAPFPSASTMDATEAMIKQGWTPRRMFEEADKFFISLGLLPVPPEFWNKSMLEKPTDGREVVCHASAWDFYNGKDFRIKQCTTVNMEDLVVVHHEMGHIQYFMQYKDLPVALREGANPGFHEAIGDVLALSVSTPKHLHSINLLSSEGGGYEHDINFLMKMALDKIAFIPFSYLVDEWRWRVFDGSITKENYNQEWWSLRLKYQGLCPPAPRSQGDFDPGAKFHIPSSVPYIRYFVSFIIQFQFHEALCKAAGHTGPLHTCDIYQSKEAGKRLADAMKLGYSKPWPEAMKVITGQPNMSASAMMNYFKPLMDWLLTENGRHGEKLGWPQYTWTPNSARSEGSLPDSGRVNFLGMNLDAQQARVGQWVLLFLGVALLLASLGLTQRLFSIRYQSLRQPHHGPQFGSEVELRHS

Caspase-1 = biological target: T3, Caspase-1 (Homo sapiens, UniProt P29466); design: species or system Escherichia coli;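 also: Caspase-1 enzyme inhibition assay with a peptide substrate; in other assays of this panel Not Active means under 50% inhibition at 10 µM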
T3 sequence (P29466 whole entry): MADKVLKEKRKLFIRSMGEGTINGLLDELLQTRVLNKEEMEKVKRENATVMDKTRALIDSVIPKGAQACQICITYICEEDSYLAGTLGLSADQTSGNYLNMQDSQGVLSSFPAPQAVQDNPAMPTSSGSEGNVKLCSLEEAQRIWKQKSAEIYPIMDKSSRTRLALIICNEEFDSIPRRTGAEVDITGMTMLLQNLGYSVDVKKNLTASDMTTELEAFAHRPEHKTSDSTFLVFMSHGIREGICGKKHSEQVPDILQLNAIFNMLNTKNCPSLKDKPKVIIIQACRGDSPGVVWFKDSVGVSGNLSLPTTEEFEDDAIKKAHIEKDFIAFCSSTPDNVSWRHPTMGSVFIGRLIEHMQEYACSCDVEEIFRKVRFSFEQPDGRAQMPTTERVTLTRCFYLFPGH

[6] = biological target: Epidermal growth factor receptor (Homo sapiens, UniProt P00533); assay: DRUGMATRIX: Protein Tyrosine Kinase, EGF Receptor enzyme inhibition (substrate: Poly(Glu:Tyr)); format: cell-based, Insect cells; settings: Not Active = under 50% inhibition at 10 µM
Chain of Epidermal growth factor receptor (P00533 whole entry): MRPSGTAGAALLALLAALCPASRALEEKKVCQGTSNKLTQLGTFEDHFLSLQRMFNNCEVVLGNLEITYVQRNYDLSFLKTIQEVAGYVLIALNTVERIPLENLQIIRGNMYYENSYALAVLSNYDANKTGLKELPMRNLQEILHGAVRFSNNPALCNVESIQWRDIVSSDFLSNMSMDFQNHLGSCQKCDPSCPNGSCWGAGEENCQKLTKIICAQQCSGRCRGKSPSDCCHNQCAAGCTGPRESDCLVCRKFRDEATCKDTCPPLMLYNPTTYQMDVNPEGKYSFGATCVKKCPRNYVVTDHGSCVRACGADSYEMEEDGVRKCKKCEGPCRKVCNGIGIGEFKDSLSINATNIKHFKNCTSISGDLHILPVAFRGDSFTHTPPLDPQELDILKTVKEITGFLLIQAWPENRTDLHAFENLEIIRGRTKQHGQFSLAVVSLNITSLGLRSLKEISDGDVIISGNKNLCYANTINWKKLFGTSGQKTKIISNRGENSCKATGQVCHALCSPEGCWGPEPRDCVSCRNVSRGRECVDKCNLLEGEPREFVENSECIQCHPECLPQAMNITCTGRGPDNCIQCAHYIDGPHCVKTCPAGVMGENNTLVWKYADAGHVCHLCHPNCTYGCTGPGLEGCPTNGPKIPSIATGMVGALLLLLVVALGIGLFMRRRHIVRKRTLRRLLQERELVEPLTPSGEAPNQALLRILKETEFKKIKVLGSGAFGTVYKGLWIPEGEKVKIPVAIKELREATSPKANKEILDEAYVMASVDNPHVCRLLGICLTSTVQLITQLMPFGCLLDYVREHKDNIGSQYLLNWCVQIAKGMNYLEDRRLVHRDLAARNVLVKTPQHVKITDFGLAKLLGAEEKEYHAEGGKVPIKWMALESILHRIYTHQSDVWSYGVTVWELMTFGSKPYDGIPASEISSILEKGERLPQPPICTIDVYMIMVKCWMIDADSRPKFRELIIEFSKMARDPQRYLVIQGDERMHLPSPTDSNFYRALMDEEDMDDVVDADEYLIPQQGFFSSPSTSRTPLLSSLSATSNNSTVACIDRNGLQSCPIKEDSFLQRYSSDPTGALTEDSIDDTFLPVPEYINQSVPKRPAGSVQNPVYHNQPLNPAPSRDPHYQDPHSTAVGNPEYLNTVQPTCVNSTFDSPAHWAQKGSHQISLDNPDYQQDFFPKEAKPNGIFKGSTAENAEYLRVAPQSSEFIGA

| SMILES | IC50 [1] | Ki [1] | Ki (B2 bradykinin receptor) | IC50 (Cannabinoid receptor 1) | IC50 [2] | Ki [2] | IC50 [3] | Ki [3] | IC50 [4] | Ki [4] | IC50 [5] | IC50 (Caspase-1) | IC50 ([6]; insect cells) | IC50 (B2 bradykinin receptor) | IC50 ([6]; read-out: IC50) |
| --- | --- | --- | --- | --- | --- | --- | --- | --- | --- | --- | --- | --- | --- | --- | --- |
| Cc1cccc(Nc2ccncc2S(=O)(=O)NC(=O)NC(C)C)c1 [TORSEMIDE] | Not Active | Not Active | Not Active | Not Active | Not Active | Not Active | Not Active | Not Active | Not Active | Not Active | Not Active | Not Active | Not Active |  |  |
| CC(C)C[C@H](NC(=O)[C@@H](O)[C@H](N)Cc1ccccc1)C(=O)O [UBENIMEX] | Not Active | Not Active |  | Not Active | Not Active | Not Active | Not Active | Not Active | Not Active | Not Active | Not Active | Not Active | Not Active | Not Active |  |
| Cc1onc(-c2ccccc2)c1-c1ccc(S(N)(=O)=O)cc1 [VALDECOXIB] | Not Active | Not Active |  | Not Active | Not Active | Not Active | Not Active | Not Active | Not Active | Not Active | Not Active | Not Active | Not Active | Not Active |  |
| CC[C@]1(O)C[C@@H]2CN(CCc3c([nH]c4ccccc34)[C@@](C(=O)OC)(c3cc4c(cc3OC)N(C)[C@H]3[C@@](O)(C(=O)OC)[C@H](OC(C)=O)[C@]5(CC)C=CCN6CC[C@]43[C@@H]65)C2)C1 [VINBLASTINE] | Not Active | Not Active |  | Not Active | Not Active | Not Active | Not Active | Not Active | Not Active | Not Active | Not Active | Not Active | Not Active | Not Active |  |
| CC(=O)CC(c1ccccc1)c1c(O)c2ccccc2oc1=O (stereo not drawn) [WARFARIN] | Not Active | Not Active |  | Not Active | Not Active | Not Active | Not Active | Not Active | Not Active | Not Active | Not Active | Not Active | Not Active | Not Active |  |
| [Cl-].[Cl-].[Zn+2] [ZINC CHLORIDE] | Not Active | Not Active |  | Not Active | Not Active | Not Active | Not Active | Not Active | Not Active | Not Active | Not Active | Not Active |  | Not Active | 2190 nM |
